# Reference: publication PMC7005262, “Complete structure of the chemosensory array core signalling unit in an E. coli minicell strain” (Nature Communications, 2020)
# Molecular target: T1, Tsr (Escherichia coli, UniProt P02942)
# T1 construct: mixed adaptational modification states, CheR and CheB present; read-out by plasmid-borne CheY-YFP/CheZ-CFP
# Assay: in vivo FRET kinase assay (CheY-YFP/CheZ-CFP), inhibition of receptor-coupled CheA activity, multi-site Hill fit
# Assay type: cell-based
# Settings: intact WM4196 minicells, motility buffer pH 7.0, adaptation enzymes CheR and CheB present; attractant at the periplasmic domain; read-out: K1/2
# T1 sequence (P02942 whole entry): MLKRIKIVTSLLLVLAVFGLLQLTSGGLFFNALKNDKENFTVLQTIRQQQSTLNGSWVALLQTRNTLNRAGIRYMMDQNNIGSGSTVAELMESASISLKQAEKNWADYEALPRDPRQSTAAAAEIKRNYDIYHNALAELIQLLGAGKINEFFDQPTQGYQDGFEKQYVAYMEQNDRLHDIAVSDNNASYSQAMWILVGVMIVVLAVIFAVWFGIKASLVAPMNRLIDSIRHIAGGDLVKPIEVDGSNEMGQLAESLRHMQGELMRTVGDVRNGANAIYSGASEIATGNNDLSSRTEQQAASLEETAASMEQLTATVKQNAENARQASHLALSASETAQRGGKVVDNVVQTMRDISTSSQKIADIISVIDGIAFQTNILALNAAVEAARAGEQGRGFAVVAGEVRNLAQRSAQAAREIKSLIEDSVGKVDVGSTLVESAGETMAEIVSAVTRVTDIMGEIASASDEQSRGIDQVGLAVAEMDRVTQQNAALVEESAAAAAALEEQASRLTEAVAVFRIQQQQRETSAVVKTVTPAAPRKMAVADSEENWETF
compound,measurement,value
N[C@@H](CO)C(=O)O [serine],EC50,400 nM
